Key:
[1] = tested on: tomato (Momotaro Fight); assay: Sprinkling of various compounds on tomato (Momotaro): first appearance, coloring and number of fruit; assay type: in vivo; settings: per four root clumps; for number of fruit turning color to orange or red: 107th day after sowing, water: 0; for number of harvested fruits: after cultivation for 3 months after sowing, water: 8
Description: Three seeds of tomato (Momotaro Fight) were shown in compost contained in a slit pot, and cultivated in the same manner as described in Example 1, provided that the cultivation was performed in a greenhouse (daytime temperature was 25° C. (6:00 to 20:00), and night temperature was 15° C. (20:00 to 6:00)). The compost and application of fertilizer were the same or performed in the same manner as those described in Example 1. After 3 weeks, one root clump was left, and the others were thinned out. When a flower cluster of the first tier appeared, a support was put up, and after a flower cluster of the second tier appeared, pinching was performed (pinching of terminal bud). After the plants of four root clumps uniformly grew, and flower buds began to appear, water (Con.), 10 mM L-isoleucine aqueous solution (Ile), 10 mM monosodium glutamate aqueous solution (GluNa), 5 mM urea aqueous solution (Urea), or 10 mM phenylalanine aqueous solution (Phe) was sprinkled on the whole plants every two weeks. The sprinkled volume was adjusted in accordance with the growth of the plants, and it was 15 to 30 mL per one root clump. The concentration of urea was 5 mM so that nitrogen amount provided by it was the same as that provided by each of the amino acids. Then, the first appearance of fruit, ripening of fruit, and number of fruit produced were investigated for each root clump.

[2] = tested on: cherry tomato (Suncherry Pure); assay type: in vivo; settings: 10 mM sprinkled once a week
Description: Three seeds of cherry tomato (Suncherry Pure, Tokita Seed) were shown in compost contained in a slit pot, and cultivated in the same manner as described in Example 1, provided that the cultivation was performed in a greenhouse as in Example 2. The compost and application of fertilizer were the same or performed in the same manner as those described in Example 1. One month after the sowing, each seedling was permanently planted in a 9.0-cm long pot (top diameter 9 cm, height 20 cm, bottom diameter 6.4 cm), and cultivated until harvest. As for application of fertilizer, a 200-fold diluted solution of Vegetable Life A (Otsuka Chemical) was additionally applied as a fertilizer by irrigation in a volume of 100 mL per one root clump (pot) every two days from one month after the sowing to the harvest. After the plants of four root clumps uniformly grew, and flower buds began to appear, water (Con.), 10 mM L-isoleucine aqueous solution (Ile), or 10 mM proline aqueous solution (Pro) was sprinkled on the whole plants once a week. The sprinkled volume was adjusted in accordance with the growth of the plants, and it was 15 to 30 mL per one root clump. Then, ripening of fruit, number of fruit, amino acid content of fruit juice, sugar content and acidity of fruit juice, and antioxidant capacity of fruit juice were investigated for each root clump.

[3] = tested on: VR callus derived from European grape; assay: Anthocyanin content of grape calluses treated with amino acids; assay type: cell-based, Vitis vinifera L.
Description: A cell line (VR, management number RPC00003) derived from European grape (Vitis vinifera L.) and stored in the Institute of Physical and Chemical Research, BioResource Center was subcultured on the MS agar medium. The subcultured VR callus was transferred to the MS agar medium containing a 5 mM solution of a different amino acid, and cultured. For the positive control, abscisic acid (ABA), for which coloring-promoting effect is known, was used at 100 μM (Jeong et al., Plant Science, 167:247-252, 2004). On the 5th day after the transfer, the callus was lyophilized and ground, and anthocyanin was extracted from it by using a 1% HCl/MeOH solution. Absorbance of the extract was measured at 530 nm, and the content of anthocyanin was measured by using cyanidine 3-glucoside as a standard substance.
(2) In the same manner as described above, anthocyanin content of grape calluses treated with isoleucine and proline, respectively, were measured.

[4] = tested on: cherry tomato (Suncherry Pure); assay: Sugar content and acidity analysis of tomato fruit juice; assay type: in vivo; settings: 10 mM sprinkled once a week
Description: (§1) After the plants of four root clumps uniformly grew, and flower buds began to appear, water (Con.), 10 mM L-isoleucine aqueous solution (Ile), or 10 mM proline aqueous solution (Pro) was sprinkled on the whole plants once a week. The sprinkled volume was adjusted in accordance with the growth of the plants, and it was 15 to 30 mL per one root clump.
Mature tomato fruit were taken from cherry tomato plants of each experimental group in the same manner as described in iii) above, and fruit juice was pressed out from each fruit. Glucose content, fructose content, and acidity of each fruit juice extract were analyzed. Analysis of glucose and fructose was performed for a 20-fold diluted solution of fruit juice by using a food analysis reagent kit, F-Kit (Saccharose (Sucrose)/D-Glucose/D-Fructose Kit (Roche)) and DU800 Spectrophotometer (Beckman Coulter) according to the manuals of the kit and instrument. Acidity analysis was performed by using a pocket acidity meter (PAL-AC1, ATAGO).

[5] = tested on: cherry tomato (Suncherry Pure); assay: Amino acid analysis of tomato fruit obtained with sprinkling of Ile or Pro; assay type: in vivo; settings: fruit juice; plants sprinkled with 10 mM solution once a week; average of 8 fruit
Description: as §1
Mature fruit were taken from each of the cherry tomato plants sprinkled with water, Ile, or Pro, and the amino acid content was analyzed for each. Two pieces of fruit were taken from the flower cluster of the second tier of one root clump, that is, a total of 8 pieces of fruit were taken for each test group. Fruit juice was pressed out of each piece of fruit, and the fruit juice was diluted 10 times with 0.02 N HCl, and subjected to filter filtration. The amino acids contained in the obtained filtrate were measured. Measurement of the amino acids was performed with High Speed Amino Acid Analyzer L-8800 (Hitachi) according to the manual of this instrument. The amounts of the amino acids (μmol/mL) in each fruit juice filtrate were calculated, and the averages for eight pieces of fruit were used as the amino acid amounts of the corresponding test group.

`N[C@@H](CCC(=O)O)C(=O)[O-].[Na+]` [GluNa, monosodium glutamate] was tested, and the “number of fruit turning color to orange or red” value (“number of fruit turning color” for short) [1] was 1 and the “number of harvested fruits” value [1] was 14.

For `N[C@@H](Cc1ccccc1)C(=O)O` [Phe, phenylalanine], the “number of fruit turning color” value [1] was 0 and the “number of harvested fruits” value [1] was 8.

For `O=C(O)[C@@H]1CCCN1` [Pro, proline, reference compound], the “final crop yield: number of fruit produced, larger as compared to water (Con.)” value [2] was 9%, the “number of tomatoes that had changed color” value [2] was “larger in the order of the tomato plants sprinkled with Ile, Pro, and water (Con.)” and the “change in color of the grape callus (anthocyanin content)” value ([3]; Ile of 1 mM or higher, Pro compared with Ile) was “weaker”. The “acidity of the fruit, comparison of groups” value [4] was “slightly increased”, the “glucose content and fructose content of the fruit, comparison of groups” value [4] was “lowest” and the Acidity ([4]; fruit juice of mature fruit) was 0.47%. For the same compound, the Fructose ([4]; fruit juice of mature fruit) was 12.2 g/L, the Glucose ([4]; fruit juice of mature fruit) was 12.3 g/L and the “Ala in fruit juice” value [5] was 3.79 µmol/mL. For the same compound, the “Arg in fruit juice” value [5] was 0.13 µmol/mL, the “Asn in fruit juice” value [5] was 0.63 µmol/mL and the “Asp in fruit juice” value [5] was 1.75 µmol/mL. The “Cys in fruit juice” value [5] was 0.08 µmol/mL, the “Gln in fruit juice” value [5] was 1.57 µmol/mL and the “Glu in fruit juice” value [5] was 7.76 µmol/mL. For the same compound, the “Gly in fruit juice” value [5] was 0.24 µmol/mL, the “His in fruit juice” value [5] was 0.17 µmol/mL and the “Ile in fruit juice” value [5] was 0.15 µmol/mL. The “Leu in fruit juice” value [5] was 0.29 µmol/mL, the “Lys in fruit juice” value [5] was 0.27 µmol/mL and the “Met in fruit juice” value [5] was 0.14 µmol/mL. The “Phe in fruit juice” value [5] was 0.38 µmol/mL, the “Pro in fruit juice” value [5] was 0.39 µmol/mL and the “Ser in fruit juice” value [5] was 0.61 µmol/mL. For the same compound, the “Thr in fruit juice” value [5] was 0.27 µmol/mL, the “Total amino acids in fruit juice” value [5] was 21.13 µmol/mL and the “Trp in fruit juice” value [5] was 0.072 µmol/mL. For the same compound, the “Tyr in fruit juice” value [5] was 0.185 µmol/mL, the “Val in fruit juice” value [5] was 0.18 µmol/mL and the “γ-ABA in fruit juice” value [5] was 4.46 µmol/mL.

Compound `N[C@@H](Cc1ccc(O)cc1)C(=O)O` [Try, reference compound] has a Relative anthocyanin content ([3]; 5 mM amino acid in MS agar medium, 5th day after transfer, positive control 100 μM abscisic acid (ABA) taken as 100%) of 0%.

In the case of `NC(N)=O` [Urea, urea], the “number of fruit turning color” value [1] was 1 and the “number of harvested fruits” value [1] was 10.

Source: patent publication US10226044B2, “Agricultural and horticultural composition and method for cultivating plant” (AJINOMOTO CO., INC., priority 2014, dated 2019)
